# Test system: 958667-338-R-J2-PDC tumor spheroids viability
# Assay: Anticancer human tumor 958667-338-R-J2-PDC patient-derived colon adenocarcinoma cell line growth inhibition [PI3K]
# Conditions: spheroids with HUVEC and MSC; for IC50: curve of first compound; for viability, T/C: stronger effect = lower value
# Summary of the method: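 Stroma-containing spheroids: tumor line, pooled-donor HUVEC, hMSC. Treatments: targeted agents with PI3K inhibitors. Dosing: clinically relevant, half-log spacing, 10 microM ceiling without known Cmax. Read-out: cell viability.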
# 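Note: spheroids exposed to compounds for seven days before readout.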
compound,measurement,setting,value
CNC(=O)c1ccc(N2C(=S)N(c3ccc(C#N)c(C(F)(F)F)c3)C(=O)C2(C)C)cc1F + CC(Nc1ncnc2nc[nH]c12)c1cc2cccc(Cl)c2c(=O)n1-c1ccccc1,IC50,second compound 0.0316 µM,> 10000 nM
same,IC50,second compound 0.1 µM,> 10000 nM
same,IC50,second compound 0.316 µM,> 10000 nM
same,IC50,second compound 1 µM,> 10000 nM
same,IC50,second compound 3.16 µM,> 10000 nM
same,IC50,second compound 10 µM,> 10000 nM
same,"viability, T/C","second compound 0.0316 µM, first compound 0.0316 µM",103%
same,"viability, T/C","second compound 0.0316 µM, first compound 0.1 µM",94.7%
same,"viability, T/C","second compound 0.0316 µM, first compound 0.316 µM",105%
same,"viability, T/C","second compound 0.0316 µM, first compound 1 µM",101%
same,"viability, T/C","second compound 0.0316 µM, first compound 3.16 µM",113%
same,"viability, T/C","second compound 0.0316 µM, first compound 10 µM",99.2%
same,"viability, T/C","second compound 0.1 µM, first compound 0.0316 µM",119%
same,"viability, T/C","second compound 0.1 µM, first compound 0.1 µM",98.7%
same,"viability, T/C","second compound 0.1 µM, first compound 0.316 µM",87.1%
same,"viability, T/C","second compound 0.1 µM, first compound 1 µM",83.5%
same,"viability, T/C","second compound 0.1 µM, first compound 3.16 µM",114%
same,"viability, T/C","second compound 0.1 µM, first compound 10 µM",87%
same,"viability, T/C","second compound 0.316 µM, first compound 0.0316 µM",103%
same,"viability, T/C","second compound 0.316 µM, first compound 0.1 µM",88.3%
same,"viability, T/C","second compound 0.316 µM, first compound 0.316 µM",101%
same,"viability, T/C","second compound 0.316 µM, first compound 1 µM",107%
same,"viability, T/C","second compound 0.316 µM, first compound 3.16 µM",121%
same,"viability, T/C","second compound 0.316 µM, first compound 10 µM",107%
same,"viability, T/C","second compound 1 µM, first compound 0.0316 µM",96.7%
same,"viability, T/C","second compound 1 µM, first compound 0.1 µM",91.3%
same,"viability, T/C","second compound 1 µM, first compound 0.316 µM",102%
same,"viability, T/C","second compound 1 µM, first compound 1 µM",96.4%
same,"viability, T/C","second compound 1 µM, first compound 3.16 µM",104%
same,"viability, T/C","second compound 1 µM, first compound 10 µM",94%
same,"viability, T/C","second compound 3.16 µM, first compound 0.0316 µM",91.8%
same,"viability, T/C","second compound 3.16 µM, first compound 0.1 µM",86.3%
same,"viability, T/C","second compound 3.16 µM, first compound 0.316 µM",72.7%
same,"viability, T/C","second compound 3.16 µM, first compound 1 µM",101%
same,"viability, T/C","second compound 3.16 µM, first compound 3.16 µM",119%
same,"viability, T/C","second compound 3.16 µM, first compound 10 µM",84.2%
same,"viability, T/C","second compound 10 µM, first compound 0.0316 µM",103%
same,"viability, T/C","second compound 10 µM, first compound 0.1 µM",96.5%
same,"viability, T/C","second compound 10 µM, first compound 0.316 µM",101%
same,"viability, T/C","second compound 10 µM, first compound 1 µM",87.9%
same,"viability, T/C","second compound 10 µM, first compound 3.16 µM",115%
same,"viability, T/C","second compound 10 µM, first compound 10 µM",74.8%
Cn1cnc2c(F)c(Nc3ccc(Br)cc3Cl)c(C(=O)NOCCO)cc21 + CC(Nc1ncnc2nc[nH]c12)c1cc2cccc(Cl)c2c(=O)n1-c1ccccc1,IC50,second compound 0.0316 µM,365 nM
same,IC50,second compound 0.1 µM,261 nM
same,IC50,second compound 0.316 µM,363 nM
same,IC50,second compound 1 µM,280 nM
same,IC50,second compound 3.16 µM,210 nM
same,IC50,second compound 10 µM,90.4 nM
same,"viability, T/C","second compound 0.0316 µM, first compound 0.00949 µM",89.8%
same,"viability, T/C","second compound 0.0316 µM, first compound 0.03 µM",80.5%
same,"viability, T/C","second compound 0.0316 µM, first compound 0.0949 µM",71%
same,"viability, T/C","second compound 0.0316 µM, first compound 0.3 µM",52.2%
same,"viability, T/C","second compound 0.0316 µM, first compound 0.949 µM",35.5%
same,"viability, T/C","second compound 0.0316 µM, first compound 3 µM",20%
same,"viability, T/C","second compound 0.1 µM, first compound 0.00949 µM",84.3%
same,"viability, T/C","second compound 0.1 µM, first compound 0.03 µM",80.6%
same,"viability, T/C","second compound 0.1 µM, first compound 0.0949 µM",62.6%
same,"viability, T/C","second compound 0.1 µM, first compound 0.3 µM",49.3%
same,"viability, T/C","second compound 0.1 µM, first compound 0.949 µM",31.3%
same,"viability, T/C","second compound 0.1 µM, first compound 3 µM",20.3%
same,"viability, T/C","second compound 0.316 µM, first compound 0.00949 µM",80.7%
same,"viability, T/C","second compound 0.316 µM, first compound 0.03 µM",97.4%
same,"viability, T/C","second compound 0.316 µM, first compound 0.0949 µM",74.8%
same,"viability, T/C","second compound 0.316 µM, first compound 0.3 µM",53.3%
same,"viability, T/C","second compound 0.316 µM, first compound 0.949 µM",32.2%
same,"viability, T/C","second compound 0.316 µM, first compound 3 µM",19.8%
same,"viability, T/C","second compound 1 µM, first compound 0.00949 µM",73.3%
same,"viability, T/C","second compound 1 µM, first compound 0.03 µM",83.5%
same,"viability, T/C","second compound 1 µM, first compound 0.0949 µM",59.7%
same,"viability, T/C","second compound 1 µM, first compound 0.3 µM",48.2%
same,"viability, T/C","second compound 1 µM, first compound 0.949 µM",33.9%
same,"viability, T/C","second compound 1 µM, first compound 3 µM",17%
same,"viability, T/C","second compound 3.16 µM, first compound 0.00949 µM",85.3%
same,"viability, T/C","second compound 3.16 µM, first compound 0.03 µM",81.6%
same,"viability, T/C","second compound 3.16 µM, first compound 0.0949 µM",57%
same,"viability, T/C","second compound 3.16 µM, first compound 0.3 µM",44.3%
same,"viability, T/C","second compound 3.16 µM, first compound 0.949 µM",31.3%
same,"viability, T/C","second compound 3.16 µM, first compound 3 µM",13.3%
same,"viability, T/C","second compound 10 µM, first compound 0.00949 µM",78.3%
same,"viability, T/C","second compound 10 µM, first compound 0.03 µM",62.9%
same,"viability, T/C","second compound 10 µM, first compound 0.0949 µM",45.2%
same,"viability, T/C","second compound 10 µM, first compound 0.3 µM",41.7%
same,"viability, T/C","second compound 10 µM, first compound 0.949 µM",20.7%
same,"viability, T/C","second compound 10 µM, first compound 3 µM",10.4%

# From PubChem BioAssay AID1963963 (Molecular Pharmacology Branch, DTP, NCI, 2024)
